Results reported in patent publication US12162872B2, “Cycloalkylurea derivative” (Sumitomo Pharma Co., Ltd., priority 2019, dated 2024).

Target: T1, Human orexin receptor type 2 (Homo sapiens, UniProt O43614)
T1 construct: expressed in transfected cells; host or cells: CHO cells (transient expression)
T1 sequence (O43614 1-444): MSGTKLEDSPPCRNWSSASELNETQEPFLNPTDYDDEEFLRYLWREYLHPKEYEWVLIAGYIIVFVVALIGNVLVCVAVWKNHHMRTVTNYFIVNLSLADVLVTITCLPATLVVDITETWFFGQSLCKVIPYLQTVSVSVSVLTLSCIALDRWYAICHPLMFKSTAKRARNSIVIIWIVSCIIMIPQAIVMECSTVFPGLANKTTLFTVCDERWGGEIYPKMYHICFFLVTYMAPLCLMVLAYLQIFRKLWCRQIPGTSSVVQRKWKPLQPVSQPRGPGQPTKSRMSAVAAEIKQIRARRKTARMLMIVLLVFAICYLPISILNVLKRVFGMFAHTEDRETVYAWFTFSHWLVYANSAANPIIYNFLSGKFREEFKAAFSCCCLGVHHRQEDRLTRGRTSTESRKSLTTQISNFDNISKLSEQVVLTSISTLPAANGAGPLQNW
Experiment: Test 2: Evaluation of agonist activity for orexin receptor type 2 (aequorin luminescence, intracellular calcium mobilization in CHO cells)
Format: cell-based
Settings: relative percentage of luminescence for the luminescence (100%) of Orexin A (100 pM); CHO cells transiently expressing human orexin receptor type 2 and apoaequorin; Orexin A Lot. 671009
Description: Test 2: Evaluation of Agonist Activity for Orexin Receptor Type 2
Human orexin receptor type 2 and apoaequorin were transiently expressed in CHO cells, and the agonist activity was evaluated based on intracellular calcium mobilization with ligand stimulation. The CHO cells transiently-expressed human orexin receptor type 2 and apoaequorin were seeded on a 384-well plate by 2,000 cells/well, and then incubated for 16-22 hours. After the plate was returned to room temperature, Coelenterazine hcp (final concentration: 1 μM) was added to the plate, and the plate was allowed to stand at room temperature for 2 hours. And then, Orexin A (PEPTIDE INSTITUTE, INC., Lot. 671009) or each test compound was added to the plate, and the luminescence of the cells was measured with FDSS7000 (Hamamatsu Photonics K.K.), wherein Orexin A and each test compound were dissolved in DMSO (final concentration: 0.1%), and diluted with a buffer (Hanks, 20 mM HEPES, 0.1% BSA). The agonist activity of each test compound for orexin receptor type 2 was calculated as relative percentage of luminescence for the luminescence (100%) of Orexin A (100 pM).

SMILES	agonist activity (%)
CC(C)c1nc([C@H]2CCCC(F)(F)[C@@H]2NC(=O)N2CCC(C)(c3noc(C4CC4)n3)CC2)no1 [Example 85, 4-(5-cyclopropyl-1,2,4-oxadiazol-3-yl)-N-{(1R,6S)-2,2-difluoro-6-[5-(propan-2-yl)-1,2,4-oxadiazol-3-yl]cyclohexyl}-4-methylpiperidine-1-carboxamide]	360
CC(C)N1CCN([C@H]2CCCC(F)(F)[C@@H]2N(C)C(=O)N2CCC(C)(c3noc([C@@H]4C[C@@H]4F)n3)CC2)CC1 [Example 146, N-{(1R,6S)-2,2-difluoro-6-[4-(propan-2-yl)piperazin-1-yl]cyclohexyl}-4-{5-[(1S,2S)-2-fluorocyclopropyl]-1,2,4-oxadiazol-3-yl}-N,4-dimethylpiperidine-1-carboxamide]	23
CC(C)(C)CN1CC[C@H](O[C@H]2CCCC(F)(F)[C@@H]2NC(=O)N2CCC(C)(c3noc([C@@H]4C[C@@H]4F)n3)CC2)C1 [Example 120, N-[(1R,6S)-6-{[(3S)-1-(2,2-dimethylpropyl)pyrrolidin-3-yl]oxy}-2,2-difluorocyclohexyl]-4-{5-[(1S,2S)-2-fluorocyclopropyl]-1,2,4-oxadiazol-3-yl}-4-methylpiperidine-1-carboxamide]	387
CN(CC1CC1)[C@@H]1CCCN([C@H]2CCCC(F)(F)[C@@H]2NC(=O)N2CCC(C)(c3noc([C@@H]4C[C@@H]4F)n3)CC2)CC1 [Example 145, N-[(1R,6S)-6-{(4R)-4-[(cyclopropylmethyl)(methyl)amino]azepan-1-yl}-2,2-difluorocyclohexyl]-4-{5-[(1S,2S)-2-fluorocyclopropyl]-1,2,4-oxadiazol-3-yl}-4-methylpiperidine-1-carboxamide]	403
CN(CC1(C(F)(F)F)CC1)C1CCN([C@H]2CCCC(F)(F)[C@@H]2NC(=O)N2CCC(C)(c3noc([C@@H]4C[C@@H]4F)n3)CC2)CC1 [Example 140, N-{(1R,6S)-2,2-difluoro-6-[4-(methyl{[1-(trifluoromethyl)cyclopropyl]methyl}amino)piperidin-1-yl]cyclohexyl}-4-{5-[(1S,2S)-2-fluorocyclopropyl]-1,2,4-oxadiazol-3-yl}-4-methylpiperidine-1-carboxamide]	249
CN(CC1CC1)[C@H]1CCCN([C@H]2CCCC(F)(F)[C@@H]2NC(=O)N2CCC(C)(c3noc([C@@H]4C[C@@H]4F)n3)CC2)CC1 [Example 144, N-[(1R,6S)-6-{(4S)-4-[(cyclopropylmethyl)(methyl)amino]azepan-1-yl}-2,2-difluorocyclohexyl]-4-{5-[(1S,2S)-2-fluorocyclopropyl]-1,2,4-oxadiazol-3-yl}-4-methylpiperidine-1-carboxamide]	399
CC(C)N1C[C@@H]2[C@H](C1)[C@H]2O[C@H]1CCCC(F)(F)[C@@H]1NC(=O)N1CCC(C)(c2noc([C@@H]3C[C@@H]3F)n2)CC1 [Example 106, N-[(1R,6S)-2,2-difluoro-6-{[(1R,5S,6S)-3-(propan-2-yl)-3-azabicyclo[3.1.0]hexan-6-yl]oxy}cyclohexyl]-4-{5-[(1S,2S)-2-fluorocyclopropyl]-1,2,4-oxadiazol-3-yl}-4-methylpiperidine-1-carboxamide]	220
CC(C)c1nc([C@H]2CCCC(F)(F)[C@@H]2NC(=O)N2CCC(C)(c3noc([C@@H]4C[C@@H]4F)n3)CC2)no1 [Example 86, N-{(1R,6S)-2,2-difluoro-6-[5-(propan-2-yl)-1,2,4-oxadiazol-3-yl]cyclohexyl}-4-{5-[(1S,2S)-2-fluorocyclopropyl]-1,2,4-oxadiazol-3-yl}-4-methylpiperidine-1-carboxamide]	367
